Experimental data published in PubChem BioAssay AID1259407 (Chemical Carcinogenesis Research Information System (CCRIS), 2018).
Activity calls are given as the source filed them. The rule behind the calls is not given here.

System: CCRIS mutagenicity, Ames/micronucleus/aberration tests
Experiment: CCRIS mutagenicity studies
[1] = Test System: AMES SALMONELLA TYPHIMURIUM, Strain/Indicator: TA98, Metabolic Activation: NONE, Method: PREINCUBATION
[2] = Test System: AMES SALMONELLA TYPHIMURIUM, Strain/Indicator: TA100, Metabolic Activation: NONE, Method: PREINCUBATION
[3] = Test System: AMES SALMONELLA TYPHIMURIUM, Strain/Indicator: TA102, Metabolic Activation: NONE, Method: STANDARD PLATE
[4] = Test System: AMES SALMONELLA TYPHIMURIUM, Strain/Indicator: TA1535, Metabolic Activation: NONE, Method: PREINCUBATION
[5] = Test System: AMES SALMONELLA TYPHIMURIUM, Strain/Indicator: TA98, Metabolic Activation: RAT, LIVER, S-9, AROCLOR 1254, Method: STANDARD PLATE
[6] = Test System: AMES SALMONELLA TYPHIMURIUM, Strain/Indicator: TA98, Metabolic Activation: NONE, Method: STANDARD PLATE
[7] = Test System: AMES SALMONELLA TYPHIMURIUM, Strain/Indicator: TA100, Metabolic Activation: NONE, Method: STANDARD PLATE
[8] = Test System: AMES SALMONELLA TYPHIMURIUM, Strain/Indicator: TA100, Metabolic Activation: RAT, LIVER, S-9, AROCLOR 1254, Method: STANDARD PLATE

[Cl][Hg][Cl]
mutagenic call (End Point: IN VITRO MICRONUCLEUS, Test System: CHINESE HAMSTER V79 CELLS, Metabolic Activation: NONE): active; positive
mutagenic call (End Point: IN VITRO MICRONUCLEUS, Test System: CHL/IU CELLS, Metabolic Activation: NONE): inactive; negative
mutagenic call (End Point: IN VITRO MICRONUCLEUS, Test System: HUMAN PERIPHERAL LYMPHOCYTES, Metabolic Activation: NONE): active; positive
mutagenic call (End Point: IN VIVO MICRONUCLEUS, Test System: RETICULOCYTES, Species: RAT, Strain/Sex: WISTAR/FEMALE, Route: ORAL (GAVAGE)): active; positive
mutagenic call (Test System: AMES SALMONELLA TYPHIMURIUM, Strain/Indicator: TA98, Metabolic Activation: HAMSTER, LIVER, S-9, AROCLOR 1254 (10%), Method: PREINCUBATION): inactive; negative
mutagenic call [1]: inactive; negative
mutagenic call (Test System: AMES SALMONELLA TYPHIMURIUM, Strain/Indicator: TA98, Metabolic Activation: RAT, LIVER, S-9, AROCLOR 1254 (10%), Method: PREINCUBATION): inactive; negative
mutagenic call (Test System: AMES SALMONELLA TYPHIMURIUM, Strain/Indicator: TA100, Metabolic Activation: HAMSTER, LIVER, S-9, AROCLOR 1254 (10%), Method: PREINCUBATION): inactive; negative
mutagenic call [2]: inactive; negative
mutagenic call (Test System: AMES SALMONELLA TYPHIMURIUM, Strain/Indicator: TA100, Metabolic Activation: RAT, LIVER, S-9, AROCLOR 1254 (10%), Method: PREINCUBATION): inactive; negative
mutagenic call [3]: inactive; negative
mutagenic call (Test System: AMES SALMONELLA TYPHIMURIUM, Strain/Indicator: TA1535, Metabolic Activation: HAMSTER, LIVER, S-9, AROCLOR 1254 (10%), Method: PREINCUBATION): inactive; negative
mutagenic call [4]: inactive; negative
mutagenic call (Test System: AMES SALMONELLA TYPHIMURIUM, Strain/Indicator: TA1535, Metabolic Activation: RAT, LIVER, S-9, AROCLOR 1254 (10%), Method: PREINCUBATION): inactive; negative
mutagenic call (Test System: AMES SALMONELLA TYPHIMURIUM, Strain/Indicator: TA1537, Metabolic Activation: HAMSTER, LIVER, S-9, AROCLOR 1254 (10%), Method: PREINCUBATION): inactive; negative
mutagenic call (Test System: AMES SALMONELLA TYPHIMURIUM, Strain/Indicator: TA1537, Metabolic Activation: NONE, Method: PREINCUBATION): inactive; negative
mutagenic call (Test System: AMES SALMONELLA TYPHIMURIUM, Strain/Indicator: TA1537, Metabolic Activation: RAT, LIVER, S-9, AROCLOR 1254 (10%), Method: PREINCUBATION): inactive; negative
mutagenic call (Test System: E. COLI, Strain/Indicator: WP2 UVRA, Metabolic Activation: NONE, Method: SPOT TEST): inactive; negative
mutagenic call (Test System: HUMAN BLOOD LYMPHOCYTES, Strain/Indicator: HUMAN BLOOD LYMPHOCYTES (HPRT)/6-THIOGUANINE, Metabolic Activation: NONE, Method: SUSPENSION/PLATE): active; positive
mutagenic call (Test System: MOUSE LYMPHOMA, Strain/Indicator: L5178Y (TK+/TK-), Metabolic Activation: NONE, Method: SUSPENSION/PLATE): active; positive

Cc1cnc2c(C)c(C)c3c(nc(N)n3C)c2n1
mutagenic call [5]: active; positive

CN(C)c1ccc(NS(=O)(=O)c2cccc3cccnc23)cc1
mutagenic call [6]: inactive; negative
mutagenic call [5]: active; positive
mutagenic call [7]: inactive; negative
mutagenic call [8]: active; positive
mutagenic call (Test System: AMES SALMONELLA TYPHIMURIUM, Strain/Indicator: TA1535, Metabolic Activation: NONE, Method: STANDARD PLATE): inactive; negative
mutagenic call (Test System: AMES SALMONELLA TYPHIMURIUM, Strain/Indicator: TA1535, Metabolic Activation: RAT, LIVER, S-9, AROCLOR 1254, Method: STANDARD PLATE): inactive; negative
mutagenic call (Test System: AMES SALMONELLA TYPHIMURIUM, Strain/Indicator: TA1537, Metabolic Activation: NONE, Method: STANDARD PLATE): inactive; negative
mutagenic call (Test System: AMES SALMONELLA TYPHIMURIUM, Strain/Indicator: TA1537, Metabolic Activation: RAT, LIVER, S-9, AROCLOR 1254, Method: STANDARD PLATE): inactive; negative

ONc1ccc(Oc2ccccc2)cc1
mutagenic call [6]: active; positive
mutagenic call [7]: active; positive

CCCCN(N)CCCC
mutagenic call (Test System: AMES SALMONELLA TYPHIMURIUM, Strain/Indicator: TA100, Metabolic Activation: NONE, Method: PREINCUBATION (11 HR GROWTH PERIOD FOR BACTERIA)): active; positive
mutagenic call [7]: inactive; negative
mutagenic call [8]: inactive; negative
mutagenic call (Test System: AMES SALMONELLA TYPHIMURIUM, Strain/Indicator: TA100, Metabolic Activation: RAT, LIVER, S-9, PCB, Method: PREINCUBATION (11 HR GROWTH PERIOD FOR BACTERIA)): inactive; negative
mutagenic call (Test System: AMES SALMONELLA TYPHIMURIUM, Strain/Indicator: TA102, Metabolic Activation: NONE, Method: PREINCUBATION (5 HR GROWTH PERIOD FOR BACTERIA)): active; positive
mutagenic call (Test System: AMES SALMONELLA TYPHIMURIUM, Strain/Indicator: TA102, Metabolic Activation: NONE, Method: PREINCUBATION (7 HR GROWTH PERIOD FOR BACTERIA)): inactive; negative
mutagenic call [3]: inactive; negative
mutagenic call (Test System: AMES SALMONELLA TYPHIMURIUM, Strain/Indicator: TA102, Metabolic Activation: RAT, LIVER, S-9, AROCLOR 1254, Method: STANDARD PLATE): inactive; negative
mutagenic call (Test System: AMES SALMONELLA TYPHIMURIUM, Strain/Indicator: TA102, Metabolic Activation: RAT, LIVER, S-9, PCB, Method: PREINCUBATION (5 OR 7 HR GROWTH PERIOD FOR BACTERIA)): inactive; negative

CC(=O)CC(=O)Nc1ccc(O)cc1
mutagenic call (Test System: AMES SALMONELLA TYPHIMURIUM, Strain/Indicator: TA100, Metabolic Activation: HAMSTER, LIVER, S-9, KANECHLOR 400, Method: PREINCUBATION): inactive; negative
mutagenic call [2]: inactive; negative

C[C@@H](Br)C(=O)NCc1ccccc1
mutagenic call [7]: active; positive

CCCCCCC(O)C/C=C\CCCCCCCC(=O)OCC(COC(=O)CCCCCCC/C=C\CC(O)CCCCCC)OC(=O)CCCCCCC/C=C\CC(O)CCCCCC (stereo not given)
mutagenic call (Test System: AMES SALMONELLA TYPHIMURIUM, Strain/Indicator: TA97, Metabolic Activation: HAMSTER, LIVER, S-9, AROCLOR 1254 (10 OR 30%), Method: PREINCUBATION): inactive; negative
mutagenic call (Test System: AMES SALMONELLA TYPHIMURIUM, Strain/Indicator: TA97, Metabolic Activation: NONE, Method: PREINCUBATION): inactive; negative
mutagenic call (Test System: AMES SALMONELLA TYPHIMURIUM, Strain/Indicator: TA97, Metabolic Activation: RAT, LIVER, S-9, AROCLOR 1254 (10 OR 30%), Method: PREINCUBATION): inactive; negative
mutagenic call (Test System: AMES SALMONELLA TYPHIMURIUM, Strain/Indicator: TA98, Metabolic Activation: HAMSTER, LIVER, S-9, AROCLOR 1254 (10 OR 30%), Method: PREINCUBATION): inactive; negative
mutagenic call [1]: inactive; negative
mutagenic call (Test System: AMES SALMONELLA TYPHIMURIUM, Strain/Indicator: TA98, Metabolic Activation: RAT, LIVER, S-9, AROCLOR 1254 (10 OR 30%), Method: PREINCUBATION): inactive; negative
mutagenic call (Test System: AMES SALMONELLA TYPHIMURIUM, Strain/Indicator: TA100, Metabolic Activation: HAMSTER, LIVER, S-9, AROCLOR 1254 (10 OR 30%), Method: PREINCUBATION): inactive; negative
mutagenic call [2]: inactive; negative
mutagenic call (Test System: AMES SALMONELLA TYPHIMURIUM, Strain/Indicator: TA100, Metabolic Activation: RAT, LIVER, S-9, AROCLOR 1254 (10 OR 30%), Method: PREINCUBATION): inactive; negative
mutagenic call (Test System: AMES SALMONELLA TYPHIMURIUM, Strain/Indicator: TA1535, Metabolic Activation: HAMSTER, LIVER, S-9, AROCLOR 1254 (10 OR 30%), Method: PREINCUBATION): inactive; negative
mutagenic call [4]: inactive; negative
mutagenic call (Test System: AMES SALMONELLA TYPHIMURIUM, Strain/Indicator: TA1535, Metabolic Activation: RAT, LIVER, S-9, AROCLOR 1254 (10 OR 30%), Method: PREINCUBATION): inactive; negative
